The values that follow come from publication PMC3709815, “Reconstructing a Flavodoxin Oxidoreductase with Early Amino Acids” (International Journal of Molecular Sciences, 2013).

Type in all cases: binding
The target in experiment [1] is T1, Megasphaera elsdenii flavodoxin (apoflavodoxin) (Megasphaera elsdenii, UniProt P00321, C127V/C54A/F36V/F70L/F71L/F86V/M120V/M16L/M57V/M97L/W100V/W7V/W91V/W96V/Y6V/Y89V).
T1 construct: synthetic gene in pET28b(+) NdeI/BamHI, 6xHis tag kept, E. coli BL21(DE3); apoprotein by trichloroacetic acid
The experiment can be described thus: fluorescence titration of FMN with apoflavodoxin (ex […] nm, em […] nm). The note with it: read-out: Kd,ox.

Experiment [2] deals with T2, Megasphaera elsdenii flavodoxin (apoflavodoxin) (Megasphaera elsdenii, UniProt P00321).
T2 construct: synthetic gene in pET28b(+) NdeI/BamHI, 6xHis tag kept, E. coli BL21(DE3); apoprotein by trichloroacetic acid
In words: far-UV circular dichroism of apo- and holoflavodoxin, reconstitution with FMN. The note with it: oxidized state; holoprotein reconstituted with 1.0 mM FMN, 40 mM sodium phosphate pH 7.0.

Experiment [3] has as its target T1, Megasphaera elsdenii flavodoxin (apoflavodoxin). The experiment can be described thus: calculated from Kd,ox and redox potential Em, […] (anaerobic dithionite titration with redox dyes). The note with it: read-out: Kd,hq.

T1 sequence (P00321 other isoform, or with tags, fused parts or gaps with the stated changes): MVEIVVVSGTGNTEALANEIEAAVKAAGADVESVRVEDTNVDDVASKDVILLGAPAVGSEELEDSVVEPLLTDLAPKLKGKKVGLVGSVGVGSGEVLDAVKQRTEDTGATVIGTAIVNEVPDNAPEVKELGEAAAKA
T2 sequence (P00321 whole entry): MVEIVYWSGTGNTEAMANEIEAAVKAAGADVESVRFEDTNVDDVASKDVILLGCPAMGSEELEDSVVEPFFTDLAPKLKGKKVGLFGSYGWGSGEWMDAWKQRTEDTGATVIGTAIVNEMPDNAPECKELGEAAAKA

Consider `Cc1cc2nc3c(=O)[nH]c(=O)nc-3n(C[C@H](O)[C@H](O)[C@H](O)COP(=O)(O)O)c2cc1C` [FMN], for which the Kd in experiment [1] worked out at 0.00292 mM. In addition, in experiment [2], the “far-UV circular dichroism of apo- and holoflavodoxin, reconstitution with FMN” value was “conformation transition of mutant and wild-type protein induced by FMN binding is different”.
Turning to `Cc1cc2c(cc1C)N(C[C@H](O)[C@H](O)[C@H](O)COP(=O)(O)O)c1[nH]c(=O)[nH]c(=O)c1N2` [FMNhq], the Kd in experiment [3] is 43.6 mM.
